Source: paper PMC4160187 (2014)

Key:
Experiment in all cases: UV-vis Soret titration (A404)
[1] = test system: r(G4C2)4 (RNA, G4) GGGGCCGGGGCCGGGGCCGGGGC; conditions: 20 mM K+; 40 mM HEPES pH 8.0, 1% DMF, 0.05% Triton X-100, 20°C; heme 0.5 µM; text also ~3 µM
[2] = test system: d(G4C2)4 (DNA, G4) GGGGCCGGGGCCGGGGCCGGGGC; conditions: 20 mM K+; 40 mM HEPES pH 8.0, 1% DMF, 0.05% Triton X-100, 20°C; heme 0.5 µM; weaker than r(G4C2)4
[3] = test system: CatG4 (DNA, G4) TGGGTAGGGCGGGTTGGGAAA; conditions: 20 mM K+; 40 mM HEPES pH 8.0, 1% DMF, 0.05% Triton X-100, 20°C; heme 0.5 µM
[4] = test system: r(C4G2)4 (RNA, other) GGCCCCGGCCCCGGCCCCGGCCCC; conditions: 20 mM K+; 40 mM HEPES pH 8.0, 1% DMF, 0.05% Triton X-100, 20°C; heme 0.5 µM; up to 20 µM RNA

C=CC1=C(C)C2=Cc3c(C=C)c(C)c4[n]3[Fe]([Cl])[n]3c(c(C)c(CCC(=O)O)c3=CC3=NC(=C4)C(C)=C3CCC(=O)O)=CC1=N2
KD [1]: 3100 nM
binding [2]: yes
Kd [3]: < 500 nM
binding [4]: no
